Values joined by “and” are separate entries in the source; they are usually repeats but may differ in a detail not shown here. Equal entries are not always repeated.
How the values were obtained:
S. cerevisiae JAY 270 = test: 1-L batch bioreactor fermentation, time course; type: cell-based, Saccharomyces cerevisiae; conditions: for Biomass Yield / Biomass yield % change vs. control / EtOH yield / EtOH yield % change vs. control / Glycerol yield / Glycerol yield % change vs. control: 1-L bioreactor, 24 hours; for Biomass yield, lower in comparison to control: addition in the fermentation medium
Description: Yeast strain: S. cerevisiae JAY 270, as in Example 1. Inocula for bioreactor experiments with PheOH and TrpOH S. cerevisiae JAY 270 were prepared by culturing the yeast in 100 mL of YPD medium in 200-mL serum bottles overnight in a shaker at 30° C. and 200 rpm. The cells were collected by centrifuging 10 min at 4000×g and 4° C. The cell pellet was washed twice using sterile 0.8% (w/v) NaCl solution. Finally, the cell pellet was resuspended in about 15 mL of 0.8% (w/v) NaCl.
Procedure: Fermentations were carried out in two Eppendorf BioFlo 115 bioreactors containing 1 L sterile YNB medium with 20 g/L glucose (Difco Yeast Nitrogen Base, catalog number 239210). The prepared yeast cells were inoculated in the bioreactor vessels to obtain an initial yeast cell concentration of OD600≈0.1. The fermentation was conducted at pH 5.5, 30° C., and 200 rpm agitation. Ultrapure N2 was sparged at 0.1 standard liters per minute in the bioreactor vessels to maintain anaerobic conditions. Samples were collected at different time points to monitor cell, glucose, and ethanol concentrations.
(§1) For experiments with added PheOH, 2.0 mL of PheOH stock solution was added to one of the two vessels when the OD600 reached 1.0 to achieve a final concentration of 0.2% (w/v). In the serum bottle tests, TrpOH had stronger effects on yeast cell growth than PheOH at the same tested concentration. A study in serum bottles was then conducted to determine the TrpOH concentration that would have a similar growth inhibitory effect. […] Thus, for bioreactor experiments on the effects of TrpOH, the TrpOH was added at 0.12%. Since TrpOH was dissolved in DMSO, the same concentration of DMSO was added in the control bioreactor at the same time. All other bioreactor conditions were the same as in the PheOH test.
Samples were collected from the bioreactors every hour post-addition for 6 h, and again after 24 hours of cultivation. Each experiment was repeated in triplicate.

S. cerevisiae JAY270 = test: Immobilized yeast cells, batch cultivation on D. armatus hydrolysate; type: cell-based, Saccharomyces cerevisiae; conditions: 0.2%; for EtOH yield / EtOH yield % Δ from control: 24 hours
Description: S. cerevisae JAY270 cells were precultured in 600 mL YPD medium at 30° C. overnight and collected by centrifuging at 3000×g for 10 min at 4° C. The cell pellets were washed twice by resuspending in 0.8% NaCl and centrifuged to remove any medium residue. Then, the cells were resuspended in 50 mL 0.8% NaCl and mixed with the 4% sodium alginate solution to obtain the final sodium alginate concentration of 3%. The mixture was dropped with a syringe aseptically into sterilized 2% CaCl2·2H2O on ice to form spheres (“beads”). The cell-immobilized beads were kept in the CaCl2) solution at 4° C. until use.
The immobilized cells were incubated in YPD medium with 20 g/L glucose overnight at 30° C. to activate the immobilized cells. For each replicate test, 25 mL of D. armatus hydrolysate obtained from NREL was mixed with 15 mL beads and transferred into a 50 mL serum bottle. All serum bottles were incubated in a shaker at 150 rpm and 30° C. Samples were collected at 0, 12, and 24 h. The concentrations of sugars and ethanol in the samples were analyzed by HPLC.
To test the effects of yield-increasing chemicals on the immobilized cells fermentation, 0.2% PheOH or TrpOH was added in the D. armatus hydrolysate obtained from NREL in serum bottles respectively (batch growth). PheOH was directly added into the hydrolysate medium. TrpOH was dissolved in DMSO at 20%, then added into the hydrolysate to achieve the desired final concentration. The same amount of DMSO was added into the control cultivations. S. cerevisae JAY270 cells were immobilized in calcium alginate. The immobilized cell beads were incubated in YPD medium overnight at 30° C. to activate the immobilized cells. Twenty-five mL of D. armatus hydrolysate was mixed with 15 mL immobilized cell beads (three biological replicates in each treatment) and incubated at 30° C. The ethanol yield was calculated at 24 hours. The content of glucose and ethanol in samples was analyzed using HPLC.

yeast = test: Yeast growth and ethanol yield in serum bottles, low/high cell inoculum (Tables 5, 6); type: cell-based
yeast cell growth = test: Serum-bottle study of the TrpOH concentration with similar growth inhibition as PheOH; type: cell-based; conditions: serum bottles, data not shown
Description: as §1

[1] = 0.05%, high cell inoculum (OD600 at 0 h 1.96), 26 h test
[2] = 0.05%, low cell inoculum (OD600 at 0 h 0.70), 26 h test
[3] = 0.1%, high cell inoculum (OD600 at 0 h 1.96), 26 h test
[4] = 0.1%, low cell inoculum (OD600 at 0 h 0.70), 26 h test
[5] = 0.2%, high cell inoculum (OD600 at 0 h 1.96), 26 h test
[6] = 0.2%, low cell inoculum (OD600 at 0 h 0.70), 26 h test
[7] = 0.05%, high cell inoculum (OD600 at 0 h 0.85), 48 h test
[8] = 0.05%, low cell inoculum (OD600 at 0 h 0.30), 48 h test
[9] = 0.1%, high cell inoculum (OD600 at 0 h 0.85), 48 h test
[10] = 0.1%, low cell inoculum (OD600 at 0 h 0.30), 48 h test
[11] = 0.2%, high cell inoculum (OD600 at 0 h 0.85), 48 h test
[12] = 0.2%, low cell inoculum (OD600 at 0 h 0.30), 48 h test

OCCc1ccccc1 [PheOH, 2-phenylethanol]
Glycerol concentration, decrease (S. cerevisiae JAY 270; PheOH 0.2%): 21% | Biomass Yield (S. cerevisiae JAY 270; PheOH 0.2% (w/v)): 0.063 ± 0.008 g/g | Biomass yield % change vs. control (S. cerevisiae JAY 270; PheOH 0.2% (w/v)): −23 ± 5 % | EtOH yield (S. cerevisiae JAY 270; PheOH 0.2% (w/v)): 0.435 ± 0.003 g/g | EtOH yield % change vs. control (S. cerevisiae JAY 270; PheOH 0.2% (w/v)): 5.3 ± 0.8 % | Glycerol yield (S. cerevisiae JAY 270; PheOH 0.2% (w/v)): 0.071 ± 0.001 g/g | Glycerol yield % change vs. control (S. cerevisiae JAY 270; PheOH 0.2% (w/v)): −20 ± 2 % | EtOH yield % change vs. control (S. cerevisiae JAY 270; PheOH 0.2% (w/v), listed as 2-phenylethanol): 6% | Final cell concentration, lower than control (S. cerevisiae JAY 270; PheOH 0.2%, 24 h): 22% | Glucose remaining (S. cerevisiae JAY 270; PheOH 0.2%, after 12 h (control completely consumed)): about 2 g/L | Biomass yield, lower in comparison to control (S. cerevisiae JAY 270): about 20% | EtOH yield (S. cerevisiae JAY270; D. armatus hydrolysate, batch): 0.46 g/g | EtOH yield % Δ from control (S. cerevisiae JAY270; D. armatus hydrolysate, batch): 1.54% | OD600 at 26 h (yeast; 0.05%, high cell inoculum (OD600 at 0 h 1.96)): 4.24 | EtOH yield (yeast; [1]): 0.47 g/g | EtOH yield % Δ from control (yeast; [1]): 3.1% | OD600 at 26 h (yeast; 0.05%, low cell inoculum (OD600 at 0 h 0.70)): 3.28 | EtOH yield (yeast; [2]): 0.47 g/g | EtOH yield % Δ from control (yeast; [2]): −1.9% | OD600 at 26 h (yeast; 0.1%, high cell inoculum (OD600 at 0 h 1.96)): 3.99 | EtOH yield (yeast; [3]): 0.47 g/g | EtOH yield % Δ from control (yeast; [3]): 1.7% | OD600 at 26 h (yeast; 0.1%, low cell inoculum (OD600 at 0 h 0.70)): 2.83 | EtOH yield (yeast; [4]): 0.45 g/g | EtOH yield % Δ from control (yeast; [4]): −4.6% | OD600 at 26 h (yeast; 0.2%, high cell inoculum (OD600 at 0 h 1.96)): 3.53 | EtOH yield (yeast; [5]): 0.48 g/g | EtOH yield % Δ from control (yeast; [5]): 4.9% | OD600 at 26 h (yeast; 0.2%, low cell inoculum (OD600 at 0 h 0.70)): 2.41 | EtOH yield (yeast; [6]): 0.47 g/g | EtOH yield % Δ from control (yeast; [6]): −1.1%

OCCc1c[nH]c2ccccc12 [TrpOH, tryptophol]
Biomass Yield (S. cerevisiae JAY 270; TrpOH 0.12% (w/v)): 0.063 ± 0.008 g/g | Biomass yield % change vs. control (S. cerevisiae JAY 270; TrpOH 0.12% (w/v)): −28 ± 5 % | EtOH yield (S. cerevisiae JAY 270; TrpOH 0.12% (w/v)): 0.420 ± 0.012 g/g | EtOH yield % change vs. control (S. cerevisiae JAY 270; TrpOH 0.12% (w/v)): 6.5 ± 3.1 % | Glycerol yield (S. cerevisiae JAY 270; TrpOH 0.12% (w/v)): 0.070 ± 0.004 g/g | Glycerol yield % change vs. control (S. cerevisiae JAY 270; TrpOH 0.12% (w/v)): −17 ± 2 % | EtOH yield % change vs. control (S. cerevisiae JAY 270; TrpOH 0.12% (w/v), listed as tryptophol): 10% | Final cell concentration, lower than control (S. cerevisiae JAY 270; TrpOH 0.12%, 24 h): about 22% | Glycerol concentration, lower than control (S. cerevisiae JAY 270; TrpOH 0.12%, 24 h): 17% | Final cell concentration, lower than control (S. cerevisiae JAY 270; TrpOH 0.12%, 24 h, listed as tryptophol): 22% | Biomass yield, lower in comparison to control (S. cerevisiae JAY 270): about 20% | Ethanol yield higher than the value for free cell fermentation of D. armatus hydrolysate (S. cerevisiae JAY270): about 20% | Ethanol yield (S. cerevisiae JAY270; D. armatus hydrolysate, batch): 0.49 g ethanol/g sugar | EtOH yield (S. cerevisiae JAY270; D. armatus hydrolysate, batch): 0.49 g/g | EtOH yield % Δ from control (S. cerevisiae JAY270; D. armatus hydrolysate, batch): 11.4% and 11.42% | Concentration with similar growth inhibition as PheOH at 16.4 mM (yeast cell growth): 7.5 mM | Concentration with similar growth inhibition as PheOH at 0.2% (w/v) (yeast cell growth): 0.12 % (w/v) | OD600 at 48 h (yeast; 0.05%, high cell inoculum (OD600 at 0 h 0.85)): 2.47 | EtOH yield (yeast; [7]): 0.52 g/g | EtOH yield % Δ from control (yeast; [7]): 4.6% | OD600 at 48 h (yeast; 0.05%, low cell inoculum (OD600 at 0 h 0.30)): 1.17 | EtOH yield (yeast; [8]): 0.50 g/g | EtOH yield % Δ from control (yeast; [8]): 5.7% | OD600 at 48 h (yeast; 0.1%, high cell inoculum (OD600 at 0 h 0.85)): 1.87 | EtOH yield (yeast; [9]): 0.54 g/g | EtOH yield % Δ from control (yeast; [9]): 7.6% | OD600 at 48 h (yeast; 0.1%, low cell inoculum (OD600 at 0 h 0.30)): 0.79 | EtOH yield (yeast; [10]): 0.50 g/g | EtOH yield % Δ from control (yeast; [10]): 2.2% | OD600 at 48 h (yeast; 0.2%, high cell inoculum (OD600 at 0 h 0.85)): 1.40 | EtOH yield (yeast; [11]): 0.51 g/g | EtOH yield % Δ from control (yeast; [11]): 1.9% | OD600 at 48 h (yeast; 0.2%, low cell inoculum (OD600 at 0 h 0.30)): 0.51 | EtOH yield (yeast; [12]): 0.52 g/g | EtOH yield % Δ from control (yeast; [12]): 5.9%

— patent US11827917B1, “Methods for the conversion of fermentable sugars to ethanol” (Colorado State University Research Foundation, priority 2020, dated 2023)
